Legend:
[1] = molecular target: T1, calcium-calmodulin dependent phosphodiesterase (CaM-PDE) (Bos taurus, UniProt P14100); assay: Phosphodiesterase Inhibition In Vitro: CaM-PDE; format: biochemical, bovine (aorta); conditions: 1 μM 3H-cGMP substrate, pH 7.5, 25 minutes, room temperature, with calmodulin and CaCl2
T1 construct: partially pure enzyme obtained from bovine aorta homogenates; from tissue; host or cells: bovine aorta homogenates
Procedure: (§1) Compounds are evaluated for inhibition of two phosphodiesterase enzymes which hydrolyze cyclic guanosine monophosphate (cGMP). The first enzyme, calcium-calmodulin dependent phosphodiesterase (CaM-PDE), is a partially pure enzyme obtained from bovine aorta homogenates and purified by DEAE-cellulose and calmodulin-affinity chromatography. The enzyme is activated several fold by Ca-calmodulin and is selective for cGMP, although it will also hydrolyze cAMP. […] Bovine aorta homogenates and primary cultures of bovine aortic endothelial and vascular smooth muscle cells contain an enzyme with properties very similar to the lung isozyme.
(§2) The enzyme assay is performed using a Biomek Automated Pipetting Station. Compounds are dissolved in distilled water or DMSO and diluted with 10% DMSO.
(§3) Assays contain the following components:
(§4) 50 mM Tris-HCl, pH 7.5, 5 mM magnesium chloride
(§5) 0.5 mg/ml snake venom alkaline phosphatase
0.1 μM Calmodulin and 1 mM CaCl2 (for CaM-PDE only)
(§6) Assays are initiated by addition of enzyme and stopped by addition of 10 mM isobutylmethylxanthine, a general phosphodiesterase inhibitor. Assays are performed for 25 minutes at room temperature to achieve 5-10% hydrolysis of substrate. The negatively charged substrates are then separated from guanosine by binding to an anion-exchange resin (AG1-X8) and centrifugation or filtration, and the product is quantitated by scintillation counting in counts per minute (cpm) of the remaining soluble material. Percent inhibition is calculated as follows:
(§7) % Inhibition=100-[(cpm compound-blank)/(cpm control-blank)×100]
(§8) Activity is expresssed as the IC50 value, i.e. the concentration required to inhibit activity of enzyme by 50 per cent.

[2] = molecular target: cGMP phosphodiesterase (cGMP-PDE) (Bos taurus, UniProt Q28156); assay: biochemical; design: species or system bovine (lung); conditions: 1 μM 3H-cGMP substrate, pH 7.5, 25 minutes, room temperature
Procedure: as §1, §2, §3, §4, §5, §6, §7, §8

[3] = system: spontaneously hypertensive rats (SHR); assay: Antihypertensive Activity in Rats (conscious SHR, oral); format: in vivo, rat (spontaneously hypertensive; conditions: fasted SHR males
Source text: The present compounds are useful in inhibiting the phosphodiesterase enzymes. These phosphodiesterase enzymes are known to hydrolyze cGMP in smooth muscle. High levels of cGMP are associated with the relaxation of vascular smooth muscle, with a consequent subsequent reduction in blood pressure. Thus, it is believed that by inhibiting these phosphodiesterase enzymes, cGMP levels in muscle will be either maintained or increased with a subsequent reduction in blood pressure. In vivo antihypertensive activity is determined orally in spontaneously hypertensive rats (SHR). The ability of the compounds of the present invention to lower blood pressure can be assessed in vivo in conscious spontaneously hypertensive rats (SHR). SHR males are purchased from Taconic Farms, Germantown, N.Y. and are approximately 16-18 weeks old when anesthetized with ether. The caudal (ventral tail) artery is cannulated with polyethylene tubing (PE50) and blood pressure and heart rate are recorded as described by Baum, T. et. al, J. Cardiovasc. Pharmacol. Vol 5, pp. 655-667, (1983). Rats are placed into plastic cylindrical cages where they rapidly recover consciousness. Blood pressure and heart rate are allowed to stabilize for approximately 90 minutes prior to compound administration. Compounds are administered orally as solutions or suspensions in 0.4% aqueous methylcellulose vehicle via a feeding needle. […] Activity is expressed as the fall in mean blood pressure (MBP) in millimeters of mercury (mm Hg). Compound-induced changes are compared with the changes in an appropriate placebo group.

| Compound | IC50 [1] [nM] | IC50 [2] [nM] | SHR Antihypertensive Fall in MBP ([3]; Dose 25 mpk) [mmHg] | SHR Antihypertensive Fall in MBP ([3]; Dose 5 mpk) [mmHg] | SHR Antihypertensive Fall in MBP ([3]; Dose 10 mpk) [mmHg] |
| --- | --- | --- | --- | --- | --- |
| CN1C(=O)c2c(ncn2Cc2ccccc2)N2C1=N[C@@H]1CCC[C@@H]12 (relative stereo) [Example 1, cis-5,6a,7,8,9,9a-Hexahydro-5-methyl-3-(phenylmethyl)cyclopent[4,5]imidazo[2,1-b]purin-4-one] | 300 | 400 | 30 | – | – |
| CN1C(=O)c2c(ncn2Cc2ccccc2)N2C1=N[C@@H]1CCCC[C@@H]12 (relative stereo) [Example 3, cis-6a,7,8,9,10,10a-Hexahydro-5-methyl-3-(phenylmethyl)-3H-benzimidazo[2,1-b]purin-4(5H)-one] | 100 | 1400 | 22 | – | – |
| Cc1nc2c(n1Cc1ccccc1)C(=O)N(C)C1=N[C@@H]3CCC[C@@H]3N12 (relative stereo) [Example 9, cis-5,6a,7,8,9,9a-Hexahydro-2,5-dimethyl-3-(phenylmethyl)cyclopent[4,5]imidazo[2,1-b]purin-4-(3H)-one] | 600 | – | 36 | – | – |
| Cc1nc2c(n1Cc1ccccc1)C(=O)N(C)C1=N[C@@H]3CCCC[C@@H]3N12 (relative stereo) [Example 12, cis-6a,7,8,9,10,10a-Hexahydro-2,5-dimethyl-3-(phenylmethyl)-3H-benzimidazo[2,1-b]purin-4(5H)-one] | 200 | 200 | 38 | – | – |
| Cc1nc2c(n1Cc1ccccc1)C(=O)N(C)C1=N[C@@H]3CCCCC[C@@H]3N12 (relative stereo) [Example 14, cis-5,6a,7,8,9,9a-Hexahydro-2,5-dimethyl-3-(phenylmethyl)cyclohept[6,7]imidazo[2,1-b]purin-4(3H)-one] | 300 | 900 | 20 | – | – |
| CCc1nc2c(n1Cc1ccccc1)C(=O)N(C)C1=N[C@@H]3CCCC[C@@H]3N12 (relative stereo) [Example 16, cis-6a,7,8,9,10,10a-Hexahydro-5-methyl-2-ethyl-3-(phenylmethyl)-3H-benzimidazo[2,1-b]purin-4(5H)-one] | 100 | 3000 | 23 | – | – |
| CN1C(=S)c2c(ncn2Cc2ccccc2)N2C1=N[C@@H]1CCC[C@@H]12 (relative stereo) [Example 20, cis-5,6a,7,8,9,9a-Hexahydro-5-methyl-3-(phenylmethyl)cyclopenta[4,5]imidazo[2,1-b]purin-4(3H)-thione] | 40 | 400 | 6 | – | – |
| CN1C(=O)c2c(ncn2Cc2ccc(Cl)cc2)N2C1=N[C@@H]1CCC[C@@H]12 (relative stereo) [Example 21, cis-5,6a,7,8,9,9a-Hexahydro-5-methyl-3-(4-chlorophenylmethyl)cyclopenta[4,5]imidazo[2,1-b]purin-4(3H)-one] | 3300 | 400 | 20 | – | – |
| CN1C(=O)c2c(ncn2CC2CCCCC2)N2C1=N[C@@H]1CCC[C@@H]12 (relative stereo) [Example 22, cis-5,6a,7,8,9,9a-Hexahydro-5-methyl-3-(cyclohexylmethyl)cyclopent[4,5]imidazo[2,1-b]purin-4(3H)-one] | 200 | 200 | 15 | – | – |
| COC(=O)c1nc2c(n1Cc1ccccc1)C(=O)N(C)C1=N[C@@H]3CCC[C@@H]3N12 (relative stereo) [Example 28, cis-3,4,5,6a,7,8,9,9a-Octahydro-5-methyl-4-oxo-3-(phenylmethyl)cyclopent[4,5]imidazo[2,1-b]purin-2-carboxylic acid, methyl ester] | 200 | 200 | 19 | – | – |
| Cc1nc2c(n1Cc1ccccc1)C(=O)N(C)C1=NC34CCCC3CCC4N12 (single isomer, unassigned; (+)) [Example 39, (+) 6a,7,8,9,9a,10,11,11a-Octahydro-2,5-dimethyl-3-phenylmethyl-3H-pentaleno[6a',1':4,5]imidazo[2,1-b]purin-4(5H)-one] | 100 | 100 | 40 | – | – |
| Cc1nc2c([nH]1)C(=O)N(C)C1=NC34CCCC3CCC4N12.Cl (single isomer, unassigned; (+)) [Example 41a, (+)-6a,7,8,9,9a,10,11,11a-Octahydro-2,5-dimethyl-3H-pentaleno[6a',1':4,5]imidazo[2,1-b]purin-4(5H)-one, hydrochloride] | 200 | 100 | 67 | 45 | 52 |
| Cc1nc2c(n1Cc1ccccc1)C(=O)N(C)C1=N[C@@H]3CCC[C@@H]3N12 [Example 10, 5,6a(R),7,8,9,9a(S)-Hexahydro-2,5-dimethyl-3-(phenylmethyl)cyclopent[4,5]imidazo[2,1-b]purin-4(3H)-one] | 300 | – | 45 | – | – |
| Cc1nc2c([nH]1)C(=O)N(C)C1=N[C@@H]3CCC[C@@H]3N12 [Example 19a, cis-5,6a(R),7,8,9,9a(S)-Hexahydro-2,5-di-methylcyclopent[4,5]imidazo[2,1-b]purin-4(3H)-one] | 3000 | 300 | 40 | – | – |
| CN1C(=O)c2c(ncn2Cc2ccccc2)N2CC3(CCCC3)N=C12 [Example 34, 5'-Methyl-3'-(phenylmethyl)-spiro[cyclopentane-1,7'(8'H)-(3'H)-imidazo[2,1-b]purin]-4'(5'H)one] | 100 | 100 | 40 | – | – |
| Cc1nc2c(n1Cc1ccccc1)C(=O)N(C)C1=NC3(CCCC3)CN12 [Example 34a, 2',5'-Dimethyl-3'-(phenylmethyl)spiro[cyclopentane-1,7'(8'H)-(3'H)-imidazo[2,1-b]purin]-4'(5'H)one] | 300 | 800 | 58 | – | – |
| CN1C(=O)c2c(ncn2Cc2ccccc2)N2C1=N[C@@H]1CCC[C@@H]12 [Example 35, cis-5,6a(R),7,8,9,9a(S)-Hexahydro-5-methyl-3-(phenylmethyl)cyclopent[4,5]imidazo[2,1-b]purin-4(3H)one] | 400 | 300 | 41 | – | – |

— patent US5393755A, “Polycyclic guanine derivatives” (priority 1992, dated 1995)
